Experimental data: patent US20240279227A1, “FUSED HETEROCYCLIC DERIVATIVES” (Janssen Sciences Ireland Unlimited Company, priority 2021, published 2024)

What was measured:
[1] = Human liver microsome stability; format: in vitro ADME; conditions: pooled human liver microsomes 0.5 mg/mL, 1 μM compound, NADPH 1 mM, pH 7.4, 37° C., 0-60 min
Procedure, shortened: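 Pooled human liver microsomes (0.5 mg/mL) incubated at 37 °C with 1 μM compound in 0.1 M phosphate pH 7.4, 1 mM MgCl2; 1 mM NADPH starts reaction. Samples quenched in acetonitrile at 0–60 min, analysed by LC-MS against internal standard; half-life from slope of ln peak-area ratio versus time.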

[2] = tested on: HepG2 or HepG2.117 cells; assay: Cytotoxicity, ATPlite Luminescence Assay; format: cell-based, human; conditions: 3-days incubation unless marked with *, ATPlite viability
Procedure, shortened: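 Viability after compound treatment is read as ATP luminescence. Exposure lasts 3 or 4 days.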

[3] = tested on: HBV; assay: Anti-HBV activity in HepG2.117 cell line (intracellular HBV DNA, real-time PCR); format: cell-based, hepatitis B virus; conditions: HepG2.117 cells, HBV replication induced, 3 days of treatment, intracellular HBV DNA by real-time PCR
Procedure, shortened: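 HepG2.117 cells (Tet-off, doxycycline-free HBV replication) induced for HBV replication, then exposed to serially diluted compound for 3 days. Intracellular HBV DNA quantified by real-time PCR with HBV-specific primers and probe.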

SMILES | HLM Metabolism t1/2 [1] [h] | CC50 [2] [µM] | EC50 [3] [µM]
CCC(c1ccc(S(C)(=O)=O)cc1)N1C[C@@H](C(=O)NC)n2nc3c(c2C1=O)CN(C(=O)c1ccc(Cl)c(Cl)c1)[C@H](C)C3 (single isomer, unassigned) [Compound 22B, (3R,7S)-2-(3,4-dichlorobenzoyl)-N,3-dimethyl-9-((S*)-1-(4-(methylsulfonyl)phenyl)propyl)-10-oxo-1,2,3,4,7,8,9,10-octahydropyrido[4′,3′:3,4]pyrazolo[1,5-a]pyrazine-7-carboxamide] | >3 | > 50 | 0.05
CNC(=O)[C@@H]1CN(C(C)c2ccc(OC)nc2)C(=O)c2c3c(nn21)C[C@@H](C)N(C(=O)c1ccc(Cl)c(Cl)c1)C3 (single isomer, unassigned) [Compound 31B, (3R,7S)-2-(3,4-dichlorobenzoyl)-9-((S*)-1-(6-methoxypyridin-3-yl)ethyl)-N,3-dimethyl-10-oxo-1,2,3,4,7,8,9,10-octahydropyrido[4′,3′:3,4]pyrazolo[1,5-a]pyrazine-7-carboxamide] | >3 | > 50 | 0.018
CNC(=O)[C@@H]1CN(C(C)c2ccc(-c3c(C)noc3C)nc2)C(=O)c2c3c(nn21)C[C@@H](C)N(C(=O)c1ccc(Cl)c(Cl)c1)C3 (single isomer, unassigned) [Compound 35B, (3R,7S)-2-(3,4-dichlorobenzoyl)-9-((S*)-1-(6-(3,5-dimethylisoxazol-4-yl)pyridin-3-yl)ethyl)-N,3-dimethyl-10-oxo-1,2,3,4,7,8,9,10-octahydropyrido[4′,3′:3,4]pyrazolo[1,5-a]pyrazine-7-carboxamide] | 2.17 | > 50 | 0.082
CNC(=O)[C@@H]1CN(C(C)c2cccc(Cl)n2)C(=O)c2c3c(nn21)C[C@@H](C)N(C(=O)c1ccc(Cl)c(Cl)c1)C3 (single isomer, unassigned) [Compound 38B, (3R,7S)-9-((S*)-1-(6-chloropyridin-2-yl)ethyl)-2-(3,4-dichlorobenzoyl)-N,3-dimethyl-10-oxo-1,2,3,4,7,8,9,10-octahydropyrido[4′,3′:3,4]pyrazolo[1,5-a]pyrazine-7-carboxamide] | 2.4 | > 50 | 0.04
CNC(=O)[C@@H]1CN(C(C)c2ccc(NCC(F)(F)F)nc2)C(=O)c2c3c(nn21)C[C@@H](C)N(C(=O)c1ccc(Cl)c(Cl)c1)C3 (single isomer, unassigned) [Compound 33B, (3R,7S)-2-(3,4-dichlorobenzoyl)-N,3-dimethyl-10-oxo-9-((S*)-1-(6-((2,2,2-trifluoroethyl)amino)pyridin-3-yl)ethyl)-1,2,3,4,7,8,9,10-octahydropyrido[4′,3′:3,4]pyrazolo[1,5-a]pyrazine-7-carboxamide] | >3 | > 50 | 0.055
CC(c1ccc(OC(F)F)cc1)N1C[C@@H](C(=O)NC2CC2)n2nc3c(c2C1=O)CN(C(=O)c1ccc(Cl)c(C#N)c1)[C@H](C)C3 (single isomer, unassigned) [Compound 26B, (3R,7S)-2-(4-chloro-3-cyanobenzoyl)-N-cyclopropyl-9-((S*)-1-(4-(difluoromethoxy)phenyl)ethyl)-3-methyl-10-oxo-1,2,3,4,7,8,9,10-octahydropyrido[4′,3′:3,4]pyrazolo[1,5-a]pyrazine-7-carboxamide] | 1.12 | > 50 | 0.09
CNC(=O)[C@@H]1CN(C(C)c2ccc(C#N)cc2)C(=O)c2c3c(nn21)C[C@@H](C)N(C(=O)c1ccc(Cl)c(Cl)c1)C3 (single isomer, unassigned) [Compound 23B, (3R,7S)-9-((S*)-1-(4-cyanophenyl)ethyl)-2-(3,4-dichlorobenzoyl)-N,3-dimethyl-10-oxo-1,2,3,4,7,8,9,10-octahydropyrido[4′,3′:3,4]pyrazolo[1,5-a]pyrazine-7-carboxamide] | >3 | > 50 | 0.023
CNC(=O)[C@@H]1CN(C(C)c2ccccn2)C(=O)c2c3c(nn21)C[C@@H](C)N(C(=O)c1ccc(Cl)c(Cl)c1)C3 (single isomer, unassigned) [Compound 37B, (3R,7S)-2-(3,4-dichlorobenzoyl)-N,3-dimethyl-10-oxo-9-((S*)-1-(pyridin-2-yl)ethyl)-1,2,3,4,7,8,9,10-octahydropyrido[4′,3′:3,4]pyrazolo[1,5-a]pyrazine-7-carboxamide] | >3 | > 50 | 0.067
CNC(=O)[C@@H]1CN(C(C)c2ccc(-n3cncn3)cc2)C(=O)c2c3c(nn21)C[C@@H](C)N(C(=O)c1ccc(Cl)c(Cl)c1)C3 (single isomer, unassigned) [Compound 2B, (3R,7S)-9-((S*)-1-(4-(1H-1,2,4-triazol-1-yl)phenyl)ethyl)-2-(3,4-dichlorobenzoyl)-N,3-dimethyl-10-oxo-1,2,3,4,7,8,9,10-octahydropyrido[4′,3′:3,4]pyrazolo[1,5-a]pyrazine-7-carboxamide] | >3 | > 50 | 0.017
CNC(=O)[C@@H]1CN(C(C)c2ccc(S(=O)(=O)C3CC3)cc2)C(=O)c2c3c(nn21)C[C@@H](C)N(C(=O)c1ccc(Cl)c(C(F)(F)F)c1)C3 (single isomer, unassigned) [Compound 20B, (3R,7S)-2-(4-Chloro-3-(trifluoromethyl)benzoyl)-9-((S*)-1-(4-(cyclopropylsulfonyl)phenyl)ethyl)-N,3-dimethyl-10-oxo-1,2,3,4,7,8,9,10-octahydropyrido[4′,3′:3,4]pyrazolo[1,5-a]pyrazine-7-carboxamide] | >3 | > 50 | 0.022
CNC(=O)[C@@H]1CN(C(C)c2ccc(N3CCCC3=O)nc2)C(=O)c2c3c(nn21)C[C@@H](C)N(C(=O)c1ccc(Cl)c(Cl)c1)C3 (relative stereo) [Compound 34B, (3R,7S)-2-(3,4-dichlorobenzoyl)-N,3-dimethyl-O-oxo-9-((S*)-1-(6-(2-oxopyrrolidin-1-yl)pyridin-3-yl)ethyl)-1,2,3,4,7,8,9,10-octahydropyrido[4′,3′:3,4]pyrazolo[1,5-a]pyrazine-7-carboxamide] | >3 | > 50 | 0.049
CNC(=O)[C@@H]1CN(C(C)c2ccc(-c3nnnn3C)cc2)C(=O)c2c3c(nn21)C[C@@H](C)N(C(=O)c1ccc(Cl)c(Cl)c1)C3 (single isomer, unassigned) [Compound 29B, (3R,7S)-2-(3,4-dichlorobenzoyl)-N,3-dimethyl-9-((S*)-1-(4-(1-methyl-1H-tetrazol-5-yl)phenyl)ethyl)-10-oxo-1,2,3,4,7,8,9,10-octahydropyrido[4′,3′:3,4]pyrazolo[1,5-a]pyrazine-7-carboxamide] | >3 | > 50 | 0.082
CNC(=O)[C@@H]1CN(C(C)c2cc(F)ccn2)C(=O)c2c3c(nn21)C[C@@H](C)N(C(=O)c1ccc(Cl)c(Cl)c1)C3 (single isomer, unassigned) [Compound 42B, (3R,7S)-2-(3,4-dichlorobenzoyl)-9-((S*)-1-(4-fluoropyridin-2-yl)ethyl)-N,3-dimethyl-10-oxo-1,2,3,4,7,8,9,10-octahydropyrido[4′,3′:3,4]pyrazolo[1,5-a]pyrazine-7-carboxamide] | >3 | > 50 | 0.02
CNC(=O)[C@@H]1CN(C(C)c2nc(C(F)(F)F)cs2)C(=O)c2c3c(nn21)C[C@@H](C)N(C(=O)c1ccc(Cl)c(Cl)c1)C3 (single isomer, unassigned) [Compound 44B, (3R,7S)-2-(3,4-dichlorobenzoyl)-N,3-dimethyl-10-oxo-9-((S*)-1-(4-(trifluoromethyl)thiazol-2-yl)ethyl)-1,2,3,4,7,8,9,10-octahydropyrido[4′,3′:3,4]pyrazolo[1,5-a]pyrazine-7-carboxamide] | >3 | > 50 | 0.091
CNC(=O)[C@@H]1CN(C(C)c2ccc(C(C)(C)O)cn2)C(=O)c2c3c(nn21)C[C@@H](C)N(C(=O)c1ccc(Cl)c(Cl)c1)C3 (single isomer, unassigned) [Compound 39B, (3R,7S)-2-(3,4-dichlorobenzoyl)-9-((S*)-1-(5-(2-hydroxypropan-2-yl)pyridin-2-yl)ethyl)-N,3-dimethyl-10-oxo-1,2,3,4,7,8,9,10-octahydropyrido[4′,3′:3,4]pyrazolo[1,5-a]pyrazine-7-carboxamide] | >3 | > 50 | 0.12
CNC(=O)[C@@H]1CN(C(C)c2ccc(S(C)(=O)=O)cc2)C(=O)c2c3c(nn21)C[C@@H](C)N(C(=O)c1ccc(Cl)c(C(F)(F)F)c1)C3 (single isomer, unassigned) [Compound 19B, (3R,7S)-2-(4-chloro-3-(trifluoromethyl)benzoyl)-N,3-dimethyl-9-((S*)-1-(4-(methylsulfonyl)phenyl)ethyl)-10-oxo-1,2,3,4,7,8,9,10-octahydropyrido[4′,3′:3,4]pyrazolo[1,5-a]pyrazine-7-carboxamide] | >3 | > 50 | 0.028
